Patent US20100159030A1, “METHODS FOR DETECTING AND MODULATING THE SENSITIVITY OF TUMOR CELLS TO ANTI-MITOTIC AGENTS AND FOR MODULATING TURMORGENICITY” (NewSouth Innovations Pty Limited, priority 2007, published 2010)
Like-named read-outs stand apart in the source and are kept apart here.

Tests used:
Assay type in all cases: cell-based, Human
NSCLC H460 cells = test: Drug-treated clonogenic assay (surviving fraction, ID50) on siRNA/shRNA-transfected cells; conditions: for IC50: Homo sapiens; for change in drug sensitivity (clonogenic survival): H460
Description: (§1) Cells were transfected for 24 h and approximately 600 cells (for Calu-6) or 150 cells (for H460) were seeded into each well of a 6-well plate and allowed to attach for 4-6 h. The cell lines used in this study were not subject to prior drug selection, and are likely to represent intrinsic drug resistance observed in lung carcinoma.
(§2) Cells were then treated with increasing concentrations of various anti-mitotic drugs. Following a 3-day incubation at 37° C., the drug-containing medium was removed and replaced with fresh complete medium. Medium was changed at 3-4 day intervals for 7 to 10 days until visible colonies formed. […] Surviving colonies were simultaneously fixed and stained with 0.5% crystal violet in methanol, rinsed with water to remove excess stain and air-dried overnight.
(§3) The colonies in each well were manually counted, and the results were presented as surviving fraction according to the formula: surviving fraction was calculated as follows: colony number/(number of cells seeded×plating efficiency), where plating efficiency is equivalent to the colony number divided by the number of cells seeded in the drug-free medium. Dose-response curves were plotted for each drug-cell line combination and inhibitory dose (ID50) values were extrapolated from this curve using GraphPad Prism program (GraphPad Software, version 4, San Diego, Calif.). ID50 was defined as the concentration of the drug required to reduce the number of colonies in drug-treated wells to 50% of that of the relevant untreated control wells. The ID50 values were the means of at least four independent experiments.
(§4) To quantitate any change in drug sensitivity, drug treated clonogenic assays were performed. Twenty-four hours after siRNA transfection, cells were harvested and plated into 6-well plates for 6 h, prior to the addition of various drugs as indicated in the figure legends. After 72 h incubation, the drug-containing media was removed and replaced with complete growth media. Medium was changed every 3 days for 7 to 10 days until visible colonies formed. Colonies were simultaneously fixed and stained with 0.5% crystal violet in methanol, and manually counted. Individual stained colonies in each well were counted and the surviving fraction was calculated as follows: colony number/(number of cells seeded×plating efficiency), where plating efficiency equals the colony number divided by the number of cells seeded in drug-free media.

Calu-6 cells [1] = test: Drug-treated clonogenic assay on siRNA-transfected cells
Description: as §1, §2, §3, §4

Calu-6 cells [2] = test: Immunofluorescent staining of microtubules (α-tubulin) after drug treatment; conditions: 1 h, vs control
Description: Transfected Calu-6 cells were grown on sterile chamber slides until 60-70% confluent. Cells were then treated with paclitaxel and vincristine for 1 h at 10 nM. Cells were fixed in methanol and processed for staining as previously described (Don et al. (2004) supra) with minor modifications. Fixed cells were stained with α-tubulin (1:400 in 5% FCS/PBS, Sigma) for 30 min followed by Cy2 anti-mouse fluorescent tagged antibody (1:1,000 in 5% FCS/PBS, GE Healthcare). Slides were mounted on a coverslip using DAPI II Counterstain (Vysis Inc., Downers Grove, Ill.). Slides were viewed using a Zeiss Axioplan 2 Immunofluorescence Microscope (Mannheim, Germany) with Image-Pro® Plus 4.1 software (Media Cybernetics, L.P., Silver Spring, Md.).
To assess the effects of βIII downregulation on microtubule organization, immunofluorescence staining was performed on transfected Calu-6 cells as follows. Briefly, siRNA transfected cells were plated in glass chamber slides and allowed to reach 70% confluence. Cells were then treated with 10 nM of paclitaxel or vincristine for 1 hour. Drug was then removed by washing cells with PBS and blocked in 10% FCS/PBS. For dual staining, cells were first labelled with an antibody to class III β-tubulin which was exposed to cells incubated at 37° C. for 30 minutes in a humidified chamber. Following washes in 0.1% Tween 20/PBS at room temperature, the slides were incubated with Cy3 anti-mouse fluorescent-tagged antibody (GE Healthcare) for 40 minutes in a humidified chamber in the dark at room temperature. Following incubation, the slides were washed again in 0.1% Tween 20/PBS. This was then followed by staining with α-tubulin and Cy2 anti-mouse fluorescent tagged antibody (GE Healthcare). Slides were mounted on a coverslip using DAPI II Counterstain (Vysis Inc., Downers Grove, Ill.). Immunofluorescence microscopy was performed and images were captured using a Sensicam Charged Coupled Device camera (PCO Imaging, Kelheim, Bavaria, Germany) and the Image-Pro® Plus 4.1 software (Media Cybernetics, L.P., Silver Spring, Md.).

H460 cells = test: Cell cycle analysis by flow cytometry (propidium iodide); conditions: 24 h
Description: The distribution of DNA content in βII or βIVb tubulin siRNA-transfected H460 cells was determined by flow cytometry. After 72 h transfection, transfected cells were exposed to vincristine at 5 nM or 40 nM concentrations for 24 h. On the day of analysis, both adherent and floating cells were harvested, washed with PBS and then stained with a solution containing 0.4% Triton® X-100 (Sigma), 50 μg/ml propidium iodide (Sigma), and 2 μg/ml DNase-free RNase (Roche, Indianapolis, Ind.) in the dark for 15 min at 37′C. DNA content was measured by a FACSCalibur flow cytometer (Becton Dickinson, San Diego, Calif.). The flow rate was <200 nuclei per second and 10,000 cells from each sample were analysed. Measurements were performed under the same instrumental settings. The CellQuest® program was used to quantitate the distribution of cells in each cell cycle phase: sub-G1 (apoptotic cells), G1, S and G2/M.
To determine whether βIII-tubulin silencing affects the cell cycle profiles, cell cycle analysis using flow cytometry was performed. Cell cycle analysis was determined by transfecting H460 cells with siRNA for 72 h and harvesting (adherent and suspension) cells 24 h after drug treatment. DNA content was stained for 15 min at 37° C. with a solution containing 0.4% Triton® X-100 (Sigma-Aldrich), 50 μg/ml propidium iodide (Sigma-Aldrich), and 2 μg/ml DNAse-free RNAse (Roche, Indianapolis, Ind.). The cells were then analyzed for cell cycle perturbation using a FACSCalibur (Becton-Dickinson, Franklin Lakes, N.J.). The CellQuest® program was used to quantitate the distribution of cells in each cell cycle phase: sub-G1(apoptotic cells), G1, S and G2/M.

[3] = class II β-tubulin siRNA knockdown vs controls
[4] = class IVb β-tubulin siRNA knockdown vs controls

CC(=O)O[C@H]1C(=O)[C@@]2(C)[C@H]([C@H](OC(=O)c3ccccc3)[C@]3(O)C[C@H](OC(=O)[C@H](O)[C@@H](NC(=O)c4ccccc4)c4ccccc4)C(C)=C1C3(C)C)[C@]1(OC(C)=O)CO[C@@H]1C[C@@H]2O [Paclitaxel, paclitaxel]
IC50 (NSCLC H460 cells; NCI-H460, Table 2, 27-mer βIII siRNA Sequence-8 H460 cells, read-out: ID50 ± SEM): 1.7 ± 0.043 nM
IC50 (NSCLC H460 cells; NCI-H460, Table 2, 27-mer βIII siRNA Sequence-11 H460 cells, read-out: ID50 ± SEM): 1.78 ± 0.07 nM
IC50 (NSCLC H460 cells; NCI-H460, Table 2, Ctrl-1 (27-mer control siRNA) H460 cells, read-out: ID50 ± SEM): 2.89 ± 0.165 nM
IC50 (NSCLC H460 cells; NCI-H460, Table 2, mock-transfected H460 cells, read-out: ID50 ± SEM): 2.63 ± 0.136 nM
IC50 (NSCLC H460 cells; NCI-H460, Table 3, H460 Ctrl clone 1, read-out: Paclitaxel ID50 ± SEM): 2.75 ± 0.131 nM
IC50 (NSCLC H460 cells; NCI-H460, Table 3, H460 Ctrl clone 2, read-out: Paclitaxel ID50 ± SEM): 2.83 ± 0.093 nM
IC50 (NSCLC H460 cells; NCI-H460, Table 3, H460 βIII shRNA clone 4, read-out: Paclitaxel ID50 ± SEM): 1.36 ± 0.087 nM
IC50 (NSCLC H460 cells; NCI-H460, Table 3, H460 βIII shRNA clone 59, read-out: Paclitaxel ID50 ± SEM): 1.78 ± 0.07 nM
IC50 (NSCLC H460 cells; NCI-H460, Table 3, H460 βIII shRNA clone 60, read-out: Paclitaxel ID50 ± SEM): 1.58 ± 0.095 nM
RS (relative sensitivity) (NSCLC H460 cells; Table 2, 27-mer βIII siRNA Sequence-8 H460 cells): (1.55, <0.0001***)
RS (relative sensitivity) (NSCLC H460 cells; Table 2, 27-mer βIII siRNA Sequence-11 H460 cells): (1.42, 0.0001***)
RS (relative sensitivity) (NSCLC H460 cells; Table 2, Ctrl-1 H460 cells): (0.91, NS)
RS (relative sensitivity) (NSCLC H460 cells; Table 3, Ctrl clone 2 compared to ctrl clone 1): (0.97, NS)
RS (relative sensitivity) (NSCLC H460 cells; Table 3, βIII shRNA clone 4 compared to ctrl clone 1): (2.03, <0.0001***)
RS (relative sensitivity) (NSCLC H460 cells; Table 3, βIII shRNA clone 59 compared to ctrl clone 1): (1.55, <0.0001***)
RS (relative sensitivity) (NSCLC H460 cells; Table 3, βIII shRNA clone 60 compared to ctrl clone 1): (1.74, <0.0001***)
change in drug sensitivity (clonogenic survival) (NSCLC H460 cells; [3]): did not significantly potentiate the cytotoxicity
change in drug sensitivity (clonogenic survival) (NSCLC H460 cells; [4]): did not significantly enhance the cytotoxicity
change in drug sensitivity (clonogenic survival) (NSCLC H460 cells; βIII-tubulin siRNA silencing vs controls): significant increase in sensitivity
change in drug sensitivity (clonogenic survival) (Calu-6 cells [1]; [3]): did not significantly potentiate the cytotoxicity
change in drug sensitivity (clonogenic survival) (Calu-6 cells [1]; [4]): no effect on sensitivity
microtubule morphology (Calu-6 cells [2]; βII siRNA-transfected Calu-6, 10 nM drug): did not appear significantly different
microtubule morphology (Calu-6 cells [2]; βIII siRNA-transfected Calu-6, 10 nM drug): extensive disruption of the microtubule cytoskeleton
cell cycle profile (H460 cells; control siRNA cells, 40 nM): marked G2/M block
cell cycle profile (H460 cells; βIII-tubulin siRNA cells vs control siRNA, 5 nM): higher sub-G1 (apoptotic cells) content
cell cycle profile (H460 cells; βIII-tubulin siRNA cells, 40 nM): marked increase in the sub-G1 population
